According to US20030162777A1, “Novel N-acylated heterocycles” (Recordati S.A., priority 2001, published 2003):

Each compound was assayed against T1, human 5HT1A-serotonergic receptor (Homo sapiens, UniProt P08908) (assay: Radioligand binding to recombinant 5-HT1A receptors). Details: [3H]8-OH-DPAT 1 nM, membranes of HeLa cells with human 5-HT1A receptor; Ki from IC50 by Cheng & Prusoff; read-out: Binding affinity for 5HT1A receptors, Ki.
T1 construct: expressed in transfected cells; host or cells: HeLa (human cell line), stably transfected; cell membranes used
T1 sequence (P08908 1-422): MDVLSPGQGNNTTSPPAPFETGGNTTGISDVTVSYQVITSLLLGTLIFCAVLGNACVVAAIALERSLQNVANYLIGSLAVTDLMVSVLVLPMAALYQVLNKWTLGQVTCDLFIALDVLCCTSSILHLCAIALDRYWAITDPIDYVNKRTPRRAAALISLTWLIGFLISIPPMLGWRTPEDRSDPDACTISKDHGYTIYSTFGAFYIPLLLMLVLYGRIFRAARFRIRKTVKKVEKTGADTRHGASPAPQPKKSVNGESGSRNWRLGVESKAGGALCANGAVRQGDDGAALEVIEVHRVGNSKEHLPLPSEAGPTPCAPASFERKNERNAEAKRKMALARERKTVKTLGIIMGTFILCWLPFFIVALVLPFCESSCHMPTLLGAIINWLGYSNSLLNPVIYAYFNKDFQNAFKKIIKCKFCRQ
Description: Genomic clone G-21 coding for the human 5HT1A-serotonergic receptor was stably transfected in a human cell line (HeLa). HeLa cells were grown as monolayers in Dulbecco's modified Eagle medium (DMEM), containing 10% foetal bovine serum, gentamicin ([…]) and 5% carbon dioxide, at 37° C. The cells were detached from the growth flask at 95% confluence by a cell scraper and were lysed in cold 5 mM Tris and 5 mM EDTA buffer (pH 7.4). The homogenates were centrifuged at 40000×g×20 minutes and the pellets were resuspended in a small volume of cold 5 mM Tris and 5 mM EDTA buffer (pH 7.4) and immediately frozen and stored at −70° C. until use. On the day of experiment, the cell membranes were resuspended in incubation buffer: 50 mM Tris HCl (pH 7.4), 2.5 mM MgCl2, […] (Fargin et al., Nature 335, 358-360, 1988). The membranes were incubated in a final volume of 1 ml for 30 minutes at 30° C. with 1 nM [^3H]8-OH-DPAT, in the absence or presence of the test compounds. Non-specific binding was determined in the presence of 10 μM 5-HT. Incubation was stopped by addition of cold Tris-HC 1 buffer and rapid filtration through a 0.2%-polyethyleneimine-pretreated Whatman-GF/B or Schleicher-&-Schuell-GF52 filter.
The affinity of the tested compounds was evaluated as inhibition of specific binding of the radioligand to 5-HT1A receptors (IC50) by using the non-linear curve-fitting program Allfit (De Lean et al., Am. J. Physiol. 235, E97-E102 (1978). The IC50 value was converted to an affinity constant (Ki) by the equation of Cheng & Prusoff (Cheng Y. C., Prusoff W. H., Biochem. Pharmacol. 22, 3099-3108 (1973)).

SMILES	Ki
COc1ccc(C(F)(F)F)cc1N1CCN(CC2CCc3ccccc3N2C(=O)C2CCCCC2)CC1 (centres unmarked) [Example 60A9, 1-(1-Cyclohexanecarbonyl-1,2,3,4-tetrahydroquinoline-2-ylmethyl)-4-(2-methoxy-5-trifluoromethylphenyl)piperazine]	6.5 nM
O=C(C1CCCCC1)N1c2ccccc2CCC1CN1CCN(c2ncccn2)CC1 (centres unmarked) [Example 35A21, 1-(1-Cyclohexanecarbonyl-1,2,3,4-tetrahydroquinoline-2-ylmethyl)-4-(2-pyrimidinyl)piperazine]	18.2 nM
O=C(C1CCCCC1)N1c2ccc(OC(F)(F)F)cc2CCC1CN1CCN(c2cccc3[nH]ccc23)CC1 (centres unmarked) [Example 26, 1-(1-Cyclohexanecarbonyl-6-trifluoromethoxy-1,2,3,4-tetrahydroquinoline-2-ylmethyl)-4-(4-indolyl)piperazine]	47.9 nM
N#Cc1ccc(C(=O)N2c3ccccc3CCC2CN2CCN(c3cccc4c3OCCO4)CC2)cc1 (centres unmarked) [Example 76A5, 1-[1-(4-Cyanobenzoyl)-1,2,3,4-tetrahydroquinolin-2-ylmethyl]-4-(2,3-dihydrobenzo[1,4]dioxin-5-yl)piperazine]	12.4 nM
N#CNCCC(=O)N1c2ccccc2CCC1CN1CCN(c2cccc3[nH]ccc23)CC1 (centres unmarked) [Example 54, 1-[1-(3-Cyanominopropionyl)-1,2,3,4-tetrahydroquinoline-2-ylmethyl]-4-(4-indolyl)piperazine]	51 nM
O=C(Cc1ccc2c(c1)OCO2)N1c2ccccc2CCC1CN1CCN(c2cccc3[nH]ccc23)CC1 (centres unmarked) [Example 68A49, 1-[1-[2-(5-Benzo[1,3]dioxolyl)acetyl]-1,2,3,4-tetrahydroquinoline-2-ylmethyl]-4-(4-indolyl)piperazine]	18.7 nM
CCNC(=O)N1c2ccccc2CCC1CN1CCN(c2cccc3[nH]ccc23)CC1 (centres unmarked) [Example 20, 1-(1-Ethylaminocarbonyl-1,2,3,4-tetrahydroquinoline-2-ylmethyl)-4-(4-indolyl)piperazine]	38.6 nM
COc1cc(F)ccc1N1CCN(CC2CCc3cc(C)ccc3N2C(=O)C2CCCCC2)CC1 (centres unmarked) [Example 53, 1-(1-Cyclohexanecarbonyl-6-methyl-1,2,3,4-tetrahydroquinoline-2-ylmethyl)-4-(4-fluoro-2-methoxyphenyl)piperazine]	24.2 nM
O=C(COCc1ccccc1)N1c2ccccc2CCC1CN1CCN(c2cccc3[nH]ccc23)CC1 (centres unmarked) [Example 68A44, 1-(4-Indolyl)-4-[1-(2-phenylmethoxyacetyl)-1,2,3,4-tetrahydroquinoline-2-ylmethyl]piperazine]	20.7 nM
CCOc1ccc(C(=O)N2c3ccccc3CCC2CN2CCN(c3cccc4[nH]ccc34)CC2)cc1 (centres unmarked) [Example 68A69, 1-[1-(4-Ethoxybenzoyl)-1,2,3,4-tetrahydroquinoline-2-ylmethyl]-4-(4-indolyl)piperazine]	4.2 nM
O=C(C1CCCCC1)N1c2ccccc2CC1CN1CCN(c2cccc3[nH]ccc23)CC1 (centres unmarked) [Example 48, 1-(1-Cyclohexanecarbonyl-2,3-dihydroindole-2-ylmethyl)-4-(4-indolyl)piperazine]	17.7 nM
O=C(CCc1cccnc1)N1c2ccccc2CCC1CN1CCN(c2cccc3[nH]ccc23)CC1 (centres unmarked) [Example 68A41, 1-(4-Indolyl)-4-[1-[3-(3-pyridylpropionyl)]-1,2,3,4-tetrahydroquinoline-2-ylmethyl]piperazine]	49.1 nM
O=C(C1CCCCC1)N1c2ccccc2CCC1CN1CCN(c2cccc(Cl)n2)CC1 (centres unmarked) [Example 72A65, 1-(1-Cyclohexanecarbonyl-1,2,3,4-tetrahydroquinolin-2-ylmethyl)-4-(6-chloropyridin-2-yl)piperazine]	15.5 nM
Cc1ccc(C(=O)N2c3ccccc3CCC2CN2CCN(c3cccc4[nH]ccc34)CC2)cc1 (centres unmarked) [Example 68A70, 1-(4-Indolyl)-4-[1-(4-methylbenzoyl)-1,2,3,4-tetrahydroquinoline-2-ylmethyl]piperazine]	5.3 nM
